Source: ChEMBL document CHEMBL1201862, “PubChem BioAssay data set” (2004)
Active and inactive are the calls of the source.

What was measured:
HEK293 [1] = assay: inhibition of NOD1-driven NF-kB reporter – cell-based, luminescence, uHTS, primary screen (AID 1578); assay type: functional; conditions: Homo sapiens
BJ [2] = assay: BJ-TERT fibroblast viability loss – cell-based, RAS-independent, luminescence, dose response (AID 1933); assay type: functional; conditions: Homo sapiens
HEK293 [3] = assay: cells; assay type: functional, cell-based; conditions: Homo sapiens
BJ [4] = assay: cells; assay type: functional, cell-based; conditions: Homo sapiens
HEK293 [5] = assay: cells; assay type: functional, cell-based; conditions: Homo sapiens; remark: listed apart in the source
[6] = biological target: Nucleotide-binding oligomerization domain-containing protein 2 (Homo sapiens, UniProt Q9HC29); assay: inhibition of NOD2-driven NF-kB reporter – cell-based, luminescence, uHTS, HEK293 (AID 1566); assay type: functional
Nucleotide-binding oligomerization domain-containing protein 2, sequence (Q9HC29 whole entry, the tested form may be a part): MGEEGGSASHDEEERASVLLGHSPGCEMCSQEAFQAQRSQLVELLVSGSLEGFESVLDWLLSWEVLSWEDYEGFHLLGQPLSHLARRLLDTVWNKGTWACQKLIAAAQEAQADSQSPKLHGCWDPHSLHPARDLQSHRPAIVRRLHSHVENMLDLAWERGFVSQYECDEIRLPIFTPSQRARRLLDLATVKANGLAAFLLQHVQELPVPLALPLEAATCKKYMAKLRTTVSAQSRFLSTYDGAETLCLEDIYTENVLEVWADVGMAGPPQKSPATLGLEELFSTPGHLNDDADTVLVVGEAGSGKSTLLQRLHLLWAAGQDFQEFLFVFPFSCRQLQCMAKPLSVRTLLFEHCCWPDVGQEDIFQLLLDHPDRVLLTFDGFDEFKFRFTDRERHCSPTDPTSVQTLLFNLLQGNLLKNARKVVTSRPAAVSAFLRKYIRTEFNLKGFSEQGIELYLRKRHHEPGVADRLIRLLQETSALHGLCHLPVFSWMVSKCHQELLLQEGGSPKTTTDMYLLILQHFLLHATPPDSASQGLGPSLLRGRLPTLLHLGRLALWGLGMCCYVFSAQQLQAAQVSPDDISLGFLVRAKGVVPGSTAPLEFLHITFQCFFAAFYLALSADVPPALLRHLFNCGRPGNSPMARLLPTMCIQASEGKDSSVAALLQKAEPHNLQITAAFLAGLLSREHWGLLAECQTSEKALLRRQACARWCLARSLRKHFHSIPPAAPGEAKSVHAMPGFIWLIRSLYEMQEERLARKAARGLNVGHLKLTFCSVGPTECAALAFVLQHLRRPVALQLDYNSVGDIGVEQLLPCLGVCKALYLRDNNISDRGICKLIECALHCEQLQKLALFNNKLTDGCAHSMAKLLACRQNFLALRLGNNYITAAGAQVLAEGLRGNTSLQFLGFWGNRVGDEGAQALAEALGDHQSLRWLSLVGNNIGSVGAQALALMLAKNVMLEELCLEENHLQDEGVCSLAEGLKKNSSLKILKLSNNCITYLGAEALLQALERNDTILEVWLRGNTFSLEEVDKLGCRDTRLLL

HEK293 [7] = assay: NOD2 signaling inhibitors in MDP-stimulated cells, cell-based, uHTS, luminescence (AID 2001); assay type: functional; conditions: Homo sapiens
[8] = Trypanosoma cruzi growth suppression in host cells – NIH3T3 host cells, beta-gal luminescence, confirmation (AID 2044); assay type: functional, cell-based;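 also: intracellular parasites grown in NIH/3T3 mouse fibroblasts as host cells; luminescent beta-galactosidase reporter signal from transgenic T. cruzi replicating inside host cells; inhibitors lower the luminescence signal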
HEK293 [9] = assay: cells; assay type: functional, cell-based; conditions: Homo sapiens; remark: listed apart in the source
[10] = viability of PTEN-deleted HCT116 cells – cell-based, HCT116 PTEN knockout, dose response (AID 1047); assay type: functional;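 also: HCT116 colon tumor cells with PTEN knocked out; cells exposed to compound for 60 hours before readout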
[11] = NIH3T3 cell viability loss – ATP luminescence, mouse fibroblasts, counter-screen, dose response (AID 2010); assay type: functional, cell-based;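 also: cells exposed to compound for about 90 hours before reading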
[12] = viability of HCT116 lacking mutant beta-catenin – cell-based, human colon tumor, dose response (AID 1045); assay type: functional;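 also: HCT116 colon tumor cells with beta catenin knocked out; cells exposed to compound for 60 hours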
BJ [13] = assay: BJ-TERT-LT-ST fibroblast viability loss – cell-based, RAS-independent, luminescence, dose response (AID 1935); assay type: functional; conditions: Homo sapiens;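 also: BJ fibroblasts immortalized with TERT plus LT and ST oncogenes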
[14] = DRD fibroblast viability loss – cell-based, non-viral oncogenic, luminescence, dose response (AID 1934); assay type: functional; conditions: Homo sapiens
[15] = THP-1 cell cytotoxicity, dose response, cytotoxicity control for non-replicating M. tuberculosis project (AID 489025); assay type: functional
[16] = HepG2 cell cytotoxicity, dose response, cytotoxicity control for non-replicating M. tuberculosis project (AID 489018); assay type: functional; conditions: Mycobacterium tuberculosis
[17] = Vero E6 cell cytotoxicity, dose response, cytotoxicity control for non-replicating M. tuberculosis project, secondary assay (AID 492998); assay type: functional, VeroE6; conditions: Vero C1008
[18] = biological target: FAD-linked sulfhydryl oxidase ALR (Homo sapiens, UniProt P55789); assay: ALR-catalysed DTT oxidation blockers – biochemical, H2O2 detection, luminescence, cherry-pick, dose response (AID 493248)
FAD-linked sulfhydryl oxidase ALR, sequence (P55789 whole entry): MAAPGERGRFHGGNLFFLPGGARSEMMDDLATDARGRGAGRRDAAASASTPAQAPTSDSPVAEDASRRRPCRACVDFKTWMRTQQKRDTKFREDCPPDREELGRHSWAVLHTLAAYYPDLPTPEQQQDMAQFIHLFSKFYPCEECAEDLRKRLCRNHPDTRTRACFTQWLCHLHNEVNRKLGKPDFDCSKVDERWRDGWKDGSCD

cells = assay type: functional
[19] = biological target: Heat shock protein HSP 90-alpha (Homo sapiens, UniProt P07900); assay type: functional, organism-based
INS1 = assay: INS-1E survival protection against cytokine death – cell-based, luminescence, retest, dose response (AID 449756); assay type: functional; conditions: Rattus norvegicus;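 also: cell death triggered by IL-1 beta plus TNF-alpha plus IFN-gamma mixture; protective hits raise ATP signal compared with cytokine alone wells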
[20] = reduction of Shn3 3'UTR-driven luciferase in osteoblasts – cell-based, Clone20 osteoblasts, firefly luciferase, cherry-picked, dose response (AID 624132); assay type: functional;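 also: firefly luciferase luminescence from reporter carrying the Shn3 3'UTR in osteoblasts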
[21] = loss of viability in HepG2 cells – cell-based, CellTiter-Glo, cherry-picked, cytotoxicity control for Shn3 inhibitor project, dose response (AID 624134); assay type: functional
[22] = non-specific 3'UTR reporter inhibition in Clone20-Shn3RL – cell-based, Renilla luciferase, cherry-picked, counter-screen for Shn3 inhibitor project, dose response (AID 624133); assay type: functional
Caspase-3 = biological target: T1, Caspase-3 (Homo sapiens, UniProt P42574); assay: activation of caspase-3 zymogen – biochemical, absorbance, dose response (AID 489014)
T1 sequence (P42574 whole entry): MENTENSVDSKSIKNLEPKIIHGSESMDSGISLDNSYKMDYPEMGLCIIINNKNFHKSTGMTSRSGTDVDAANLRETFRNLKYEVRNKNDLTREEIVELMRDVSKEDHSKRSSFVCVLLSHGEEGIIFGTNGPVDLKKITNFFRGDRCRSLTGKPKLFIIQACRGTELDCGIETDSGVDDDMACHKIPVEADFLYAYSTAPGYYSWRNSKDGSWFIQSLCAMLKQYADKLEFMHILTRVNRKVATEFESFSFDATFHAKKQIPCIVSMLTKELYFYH

Caspase-7 = Caspase-7 (Homo sapiens, UniProt P55210); assay: activation of caspase-7 zymogen – biochemical, absorbance, counter-screen for procaspase-3 activator project, dose response (AID 489013)
Caspase-7, sequence (P55210 24-198 limits assumed): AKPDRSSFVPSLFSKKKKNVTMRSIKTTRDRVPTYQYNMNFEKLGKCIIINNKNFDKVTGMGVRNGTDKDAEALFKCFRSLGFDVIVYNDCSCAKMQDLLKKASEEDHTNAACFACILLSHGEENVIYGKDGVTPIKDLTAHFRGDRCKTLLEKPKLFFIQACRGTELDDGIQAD
Caspase-7, sequence (P55210 207-303 limits assumed): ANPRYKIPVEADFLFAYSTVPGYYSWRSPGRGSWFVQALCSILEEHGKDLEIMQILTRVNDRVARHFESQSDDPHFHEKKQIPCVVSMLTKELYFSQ

[23] = biological target: T2, Microphthalmia-associated transcription factor (Homo sapiens, UniProt O75030); assay: MITF Measured in Cell-Based System Using Plate Reader - 2084-01_Inhibitor_DoseNoFile_CherryPick_Activity_Set2. [Related pubchem assays (depositor defined):AID488944]; assay type: functional
T2 sequence (O75030 whole entry): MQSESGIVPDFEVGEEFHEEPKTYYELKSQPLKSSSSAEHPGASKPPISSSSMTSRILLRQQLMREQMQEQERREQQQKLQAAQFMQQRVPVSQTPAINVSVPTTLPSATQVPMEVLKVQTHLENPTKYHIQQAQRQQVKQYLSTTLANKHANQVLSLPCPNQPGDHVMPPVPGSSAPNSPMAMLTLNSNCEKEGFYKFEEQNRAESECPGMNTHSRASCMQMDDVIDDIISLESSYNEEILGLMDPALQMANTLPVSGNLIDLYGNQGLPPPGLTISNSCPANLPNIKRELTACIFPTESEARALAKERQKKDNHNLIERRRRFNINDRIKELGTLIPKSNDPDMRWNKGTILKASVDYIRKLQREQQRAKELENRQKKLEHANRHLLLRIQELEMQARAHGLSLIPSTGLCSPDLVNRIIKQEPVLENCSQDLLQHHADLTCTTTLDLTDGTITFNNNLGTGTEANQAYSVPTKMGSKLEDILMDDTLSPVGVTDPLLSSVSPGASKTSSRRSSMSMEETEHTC

[24] = biological target: T2, Microphthalmia-associated transcription factor; assay: reducers of TRPM1 reporter luminescence, concentration series – cell-based, SK-MEL-5, cherry-picked, set 4, MITF inhibitor project, dose response (AID 493102); assay type: functional
[25] = biological target: T2, Microphthalmia-associated transcription factor; assay: reducers of TRPM1 reporter luminescence, concentration series – cell-based, SK-MEL-5, cherry-picked, set 3, MITF inhibitor project, dose response (AID 493073); assay type: functional;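 also: SK-MEL-5 melanoma cells with luciferase driven by the MITF target TRPM1 promoter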
Mu-type opioid receptor = Mu-type opioid receptor (Homo sapiens, UniProt P35372); assay: SAR Analysis of Antagonists of the MOR Receptor using an Image-Based Assay - Set 3. [Related pubchem assays (depositor defined):AID1777, AID1785, AID1786, AID1966, AID2133, AID2136, AID2284, AID2285, AID2420]; assay type: functional
Mu-type opioid receptor, sequence (P35372 whole entry): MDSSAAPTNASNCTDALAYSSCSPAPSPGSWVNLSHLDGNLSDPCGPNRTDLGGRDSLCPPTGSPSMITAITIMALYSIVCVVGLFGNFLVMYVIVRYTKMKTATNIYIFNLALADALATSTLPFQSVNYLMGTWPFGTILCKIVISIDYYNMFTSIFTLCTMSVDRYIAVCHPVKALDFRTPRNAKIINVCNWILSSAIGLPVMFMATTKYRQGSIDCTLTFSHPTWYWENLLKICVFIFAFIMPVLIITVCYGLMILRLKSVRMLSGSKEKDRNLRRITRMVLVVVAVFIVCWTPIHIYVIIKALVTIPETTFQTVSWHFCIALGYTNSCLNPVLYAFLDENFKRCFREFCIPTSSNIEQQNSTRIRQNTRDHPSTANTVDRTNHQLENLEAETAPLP

[26] = biological target: Delta-type opioid receptor (Homo sapiens, UniProt P41143); assay: SAR Analysis of Antagonists of the DOR Receptor using an Image-Based Assay - Set 3. [Related pubchem assays (depositor defined):AID1777, AID1785]; assay type: functional;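 also: U2OS cells expressing DOR1 and beta-arrestin GFP stimulated with 100 nM SNC80; imaging of GFP-tagged beta-arrestin moving into spots after receptor activation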
Delta-type opioid receptor, sequence (P41143 whole entry): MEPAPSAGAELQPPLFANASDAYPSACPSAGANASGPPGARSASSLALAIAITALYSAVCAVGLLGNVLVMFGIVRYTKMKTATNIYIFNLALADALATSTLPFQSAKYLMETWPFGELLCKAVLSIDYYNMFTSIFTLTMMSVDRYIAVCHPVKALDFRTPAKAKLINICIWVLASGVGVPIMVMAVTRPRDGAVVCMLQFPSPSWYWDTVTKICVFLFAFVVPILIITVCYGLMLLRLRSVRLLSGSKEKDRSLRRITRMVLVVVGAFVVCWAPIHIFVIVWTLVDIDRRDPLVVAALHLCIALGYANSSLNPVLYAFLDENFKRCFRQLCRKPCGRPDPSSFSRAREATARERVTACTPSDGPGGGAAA

[27] = biological target: T3, Kappa-type opioid receptor (Homo sapiens, UniProt P41145); assay: SAR analysis of small molecule antagonists of the kappa opioid receptor via a luminescent beta-arrestin assay - Set 3. [Related pubchem assays (depositor defined):AID1777, AID1778, AID1785, AID1786, AID1966, AID2133, AID2136, AID2285, AID2495]; assay type: functional
T3 sequence (P41145 whole entry): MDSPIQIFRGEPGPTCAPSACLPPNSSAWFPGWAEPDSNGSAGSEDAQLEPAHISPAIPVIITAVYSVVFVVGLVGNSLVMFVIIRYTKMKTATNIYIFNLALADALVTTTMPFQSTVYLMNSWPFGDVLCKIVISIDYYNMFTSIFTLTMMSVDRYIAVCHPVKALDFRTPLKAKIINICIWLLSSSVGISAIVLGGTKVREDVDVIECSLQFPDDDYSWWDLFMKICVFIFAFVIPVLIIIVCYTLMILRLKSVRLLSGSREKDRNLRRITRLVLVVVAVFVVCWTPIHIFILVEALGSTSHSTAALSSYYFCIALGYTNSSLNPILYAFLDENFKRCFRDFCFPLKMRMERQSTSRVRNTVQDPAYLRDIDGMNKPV

[28] = biological target: T3, Kappa-type opioid receptor; assay: SAR analysis of Antagonists of the Kappa Opioid Receptor (KOR) using an Image-Based Assay - Set 4. [Related pubchem assays (depositor defined):AID1777, AID1785]; assay type: functional
[29] = biological target: Glyceraldehyde-3-phosphate dehydrogenase (Homo sapiens, UniProt P04406)
Glyceraldehyde-3-phosphate dehydrogenase, sequence (P04406 whole entry): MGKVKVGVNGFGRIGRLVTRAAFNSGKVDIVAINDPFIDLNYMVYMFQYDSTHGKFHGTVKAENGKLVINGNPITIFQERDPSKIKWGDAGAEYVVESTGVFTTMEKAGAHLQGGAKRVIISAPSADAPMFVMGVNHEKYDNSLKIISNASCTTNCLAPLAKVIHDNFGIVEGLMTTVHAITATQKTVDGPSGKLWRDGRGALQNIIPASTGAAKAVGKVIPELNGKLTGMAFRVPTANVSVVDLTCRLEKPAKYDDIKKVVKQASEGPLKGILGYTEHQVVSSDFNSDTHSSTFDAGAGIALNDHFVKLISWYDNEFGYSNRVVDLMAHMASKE

[30] = biological target: Alkaline phosphatase, placental type (Homo sapiens, UniProt P05187); assay: human placental alkaline phosphatase inhibition – biochemical, luminescence, confirmation (AID 1512); assay type: functional
Alkaline phosphatase, placental type, sequence (P05187 whole entry): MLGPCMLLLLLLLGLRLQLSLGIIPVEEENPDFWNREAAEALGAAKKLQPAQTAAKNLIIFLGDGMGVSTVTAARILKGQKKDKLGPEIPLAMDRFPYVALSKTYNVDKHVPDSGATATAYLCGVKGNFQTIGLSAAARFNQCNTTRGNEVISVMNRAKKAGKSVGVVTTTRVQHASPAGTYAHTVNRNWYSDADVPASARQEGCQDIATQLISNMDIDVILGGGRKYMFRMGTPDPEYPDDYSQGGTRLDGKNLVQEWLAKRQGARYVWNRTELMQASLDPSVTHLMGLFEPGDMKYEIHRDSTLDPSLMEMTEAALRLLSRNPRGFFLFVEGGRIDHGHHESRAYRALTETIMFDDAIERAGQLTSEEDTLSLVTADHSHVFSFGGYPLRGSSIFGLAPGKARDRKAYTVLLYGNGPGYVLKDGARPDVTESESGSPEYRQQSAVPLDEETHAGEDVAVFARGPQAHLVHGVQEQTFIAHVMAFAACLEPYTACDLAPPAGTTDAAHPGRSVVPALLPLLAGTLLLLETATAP

[31] = biological target: T4, Alkaline phosphatase, tissue-nonspecific isozyme (Homo sapiens, UniProt P05186); assay: potency against alkaline phosphatase TNAP – biochemical, luminescent, dose response, SAR follow-up (AID 1056)
T4 sequence (P05186 whole entry): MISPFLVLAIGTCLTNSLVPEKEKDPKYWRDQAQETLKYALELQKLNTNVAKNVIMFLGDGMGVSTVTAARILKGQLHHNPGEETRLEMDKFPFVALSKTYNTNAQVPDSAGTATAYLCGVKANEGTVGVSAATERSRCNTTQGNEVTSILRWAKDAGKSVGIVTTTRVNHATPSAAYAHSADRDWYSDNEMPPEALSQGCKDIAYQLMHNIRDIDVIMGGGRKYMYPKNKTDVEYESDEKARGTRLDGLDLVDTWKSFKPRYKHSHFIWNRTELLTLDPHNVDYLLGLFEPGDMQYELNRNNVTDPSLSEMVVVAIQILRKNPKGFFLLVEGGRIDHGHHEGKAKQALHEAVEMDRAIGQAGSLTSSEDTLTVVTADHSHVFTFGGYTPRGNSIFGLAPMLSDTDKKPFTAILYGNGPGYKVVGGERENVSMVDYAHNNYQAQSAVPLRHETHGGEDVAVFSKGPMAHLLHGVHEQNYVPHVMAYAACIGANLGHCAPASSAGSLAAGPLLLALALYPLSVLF

Hexokinase = Hexokinase (Trypanosoma brucei, UniProt Q38C41); assay: Confirmation assay for inhibitors of Trypanosoma brucei hexokinase 1-Analogue-first series. [Related pubchem assays (depositor defined):AID1430, AID1632, AID2516, AID2560, AID2579, AID2600, AID449725, AID492951]; assay type: functional
Hexokinase, sequence (Q38C41 whole entry): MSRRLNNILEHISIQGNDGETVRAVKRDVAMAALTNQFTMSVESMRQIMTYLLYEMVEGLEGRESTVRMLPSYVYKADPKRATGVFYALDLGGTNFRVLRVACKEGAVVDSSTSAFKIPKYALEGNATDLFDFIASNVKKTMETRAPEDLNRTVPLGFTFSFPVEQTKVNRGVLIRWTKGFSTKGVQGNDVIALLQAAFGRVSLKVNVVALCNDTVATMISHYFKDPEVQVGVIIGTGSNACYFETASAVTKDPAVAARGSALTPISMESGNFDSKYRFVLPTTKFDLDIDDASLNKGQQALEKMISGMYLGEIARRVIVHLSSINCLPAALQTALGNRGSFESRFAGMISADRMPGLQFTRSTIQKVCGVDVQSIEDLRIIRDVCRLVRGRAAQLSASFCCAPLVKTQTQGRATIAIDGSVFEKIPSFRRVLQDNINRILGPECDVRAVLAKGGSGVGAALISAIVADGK

[32] = biological target: Glucose-6-phosphate 1-dehydrogenase (Homo sapiens, UniProt P11413); assay: inhibition of Homo sapiens G6PD, dose series – biochemical, fluorescence, selectivity assay for P. falciparum G6PD inhibitor project, dose response (AID 504792); assay type: functional
Glucose-6-phosphate 1-dehydrogenase, sequence (P11413 whole entry, the tested form may be a part): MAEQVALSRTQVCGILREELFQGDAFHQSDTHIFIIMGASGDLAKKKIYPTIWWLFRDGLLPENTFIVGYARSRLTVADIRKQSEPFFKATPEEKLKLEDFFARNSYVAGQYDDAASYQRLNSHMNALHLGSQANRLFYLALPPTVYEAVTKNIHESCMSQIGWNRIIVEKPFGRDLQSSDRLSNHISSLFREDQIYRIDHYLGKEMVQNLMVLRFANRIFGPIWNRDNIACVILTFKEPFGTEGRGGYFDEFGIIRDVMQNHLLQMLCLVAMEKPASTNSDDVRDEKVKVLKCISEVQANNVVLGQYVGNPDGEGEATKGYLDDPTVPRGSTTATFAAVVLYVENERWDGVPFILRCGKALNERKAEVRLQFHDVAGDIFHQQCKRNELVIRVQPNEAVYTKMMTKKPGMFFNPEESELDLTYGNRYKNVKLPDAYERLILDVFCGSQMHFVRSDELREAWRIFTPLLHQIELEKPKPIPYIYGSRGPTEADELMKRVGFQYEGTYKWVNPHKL

CHO = CHO cell viability loss, potency – luminescence, cytotoxicity control for TLR9-MyD88 binding inhibitor project, dose response (AID 588339); assay type: functional, cell-based, hamster; conditions: Cricetulus griseus;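 also: CHO cells stably coexpressing TLR9 and MyD88 fusions from primary screen; compound exposure lasted 48 hours before viability readout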
Beta Lactamase = Beta Lactamase (Pseudomonas aeruginosa, UniProt Q932Y6); assay: BLA reporter interference, concentration series – BLA reporter cells, FRET fluorescence, artefact control for TLR9-MyD88 binding inhibitor project, dose response (AID 588341); assay type: cell-based;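 also: cell based assay in CHO-K1 cells stably expressing beta-lactamase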
Beta Lactamase, sequence (Q932Y6 whole entry): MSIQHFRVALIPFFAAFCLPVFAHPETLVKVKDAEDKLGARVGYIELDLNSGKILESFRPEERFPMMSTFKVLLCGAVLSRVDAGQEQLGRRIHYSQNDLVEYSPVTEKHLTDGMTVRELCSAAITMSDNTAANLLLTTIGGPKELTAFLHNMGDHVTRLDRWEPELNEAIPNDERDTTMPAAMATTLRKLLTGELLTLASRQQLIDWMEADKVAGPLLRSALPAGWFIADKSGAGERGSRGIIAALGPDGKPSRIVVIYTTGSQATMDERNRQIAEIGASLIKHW

[33] = biological target: T5, Tyrosine-protein phosphatase non-receptor type 7 (Homo sapiens, UniProt P35236); assay: redox-active compounds inhibiting HePTP phosphatase – biochemical, fluorescence, mechanism study (AID 2068); assay type: functional
T5 sequence (P35236 whole entry): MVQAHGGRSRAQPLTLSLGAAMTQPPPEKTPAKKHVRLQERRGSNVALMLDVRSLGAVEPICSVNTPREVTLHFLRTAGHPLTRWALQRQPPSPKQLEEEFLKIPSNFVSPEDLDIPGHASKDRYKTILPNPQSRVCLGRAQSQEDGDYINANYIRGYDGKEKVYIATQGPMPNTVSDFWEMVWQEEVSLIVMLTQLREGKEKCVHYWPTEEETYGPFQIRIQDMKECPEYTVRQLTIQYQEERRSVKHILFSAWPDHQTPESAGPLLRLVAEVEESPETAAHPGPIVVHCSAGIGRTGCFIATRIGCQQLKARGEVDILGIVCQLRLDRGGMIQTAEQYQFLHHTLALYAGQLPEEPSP

T-cell = assay: loss of vesicle association with mouse CD8+ T cells – mouse 2C CD8+ T cells, flow cytometry, dose response (AID 485284); assay type: functional

O=S1(=O)C=C(Sc2nnc(-c3ccccc3)o2)c2ccccc21
EC50 (HEK293 [1]): > 20 µM (inactive)
EC50 (BJ [2]): 1.48 µM (active)
IC50 (HEK293 [3]): 5.52 µM (active)
EC50 (BJ [4]): 7.16 µM (inconclusive)
IC50 (HEK293 [5]): > 20 µM (inactive)
EC50 [6]: > 20 µM (inactive)
IC50 (HEK293 [7]): 6.48 µM (inactive)
EC50 [8]: 0.941 µM (active)
IC50 (HEK293 [9]): > 20 µM (inactive)
EC50 [10]: 2.38 µM (active)
EC50 [11]: 2.33 µM (active)
EC50 [12]: 2.8 µM (active)
EC50 (BJ [13]): 2.8 µM (inconclusive)
EC50 [14]: 4.19 µM (active)
CC50 [15]: 6.02 µM (active)
CC50 [16]: 18.5 µM (active)
CC50 [17]: 2.87 µM (active)
AC50 [18]: 0.281 µM (active)
IC50 (cells): 1.13 µM (active)
AC50 [19]: 2.9 µM (active)
AC50 (INS1): 7.3 µM (active)
AC50 [20]: 1.7 µM (active)
AC50 [21]: 8.89 µM (active)
AC50 [22]: 4 µM (active)

Cc1ccc(C)c(N(CC(=O)Nc2ccc(-c3nc4ccc(C)cc4s3)cc2)S(C)(=O)=O)c1
EC50 [8]: 2.78 µM (active)
EC50 [11]: > 60 µM (inconclusive)
EC50 (Caspase-3): > 85.2 µM (inactive)
EC50 (Caspase-7): > 85.2 µM (inactive)

CN(C)Cc1c(O)ccc2c1O/C(=C\C=C\c1ccccc1)C2=O
AC50 [23]: > 350 µM (inactive)
AC50 [24]: > 350 µM (inactive)
AC50 [25]: > 350 µM (inactive)

Cc1ccc(N2CCN(CCCNC(=O)Cn3c(=O)c4cccn4c4c(C)ccnc43)CC2)cc1
IC50 (Mu-type opioid receptor): > 32 µM (inactive)
IC50 [26]: > 32 µM (inactive)
IC50 [27]: 0.875 µM (active)
IC50 [28]: 2.28 µM (active)

CC(C)Cc1nc(N)nn1-c1ccccc1
IC50 [29]: > 100 µM (not active)
IC50 [30]: > 100 µM (inactive)
IC50 [31]: > 100 µM (inactive)

O=c1c2cc(C(F)(F)F)ccc2sn1-c1ccccc1
IC50 (Hexokinase): > 25 µM (inactive)
IC50 [32]: 18.3 µM (active)
IC50 (CHO): 9.07 µM (active)
IC50 (Beta Lactamase): > 49.8 µM (inactive)

CC1CCN(C(=O)Nc2ccc3nc(-c4ccco4)c(-c4ccco4)nc3c2)CC1
IC50 [33]: 0.84 µM (active)

CC(=O)c1ccc(-c2csc(N3CCC(C(N)=O)CC3)n2)cc1
EC50 (T-cell): 2.47 µM (active)
